# Data reported in patent US20110065202A1, “Method for Examination of Alzheimer's Disease” (EISAI R&D MANAGEMENT CO., LTD., priority 2008, published 2011).
# “And” between values parts separate entries of the source, which are not always exact repeats. Equal values may be shown once.
# Assay: LC/MS measurement of lidocaine and its metabolite MEGX in cerebrospinal fluid of lidocaine-administered subjects
# Type: in vivo, human
# Details: for Lidocaine peak ratio to lysine / Lidocaine peak ratio to lysine, average: cerebrospinal fluid; for Lidocaine peak ratio to lysine: individual samples, lidocaine hydrochloride standard dose 200 mg at the puncture site, LC/MS; for concentration detected in cerebrospinal fluid, AD patients versus healthy subjects: cerebrospinal fluids, result in words
# Method: Cerebrospinal fluids of 17 Alzheimer's disease patients (10 male and 7 female Caucasions) and 17 healthy subjects of similar age, sex and race were used as samples. The samples were collected under epidural anesthesia with lidocaine (lidocaine hydrochloride (standard dose: 200 mg) was hypodermically administered at the puncture site). Protein components were removed from 150 microliters of each cerebrospinal fluid by using an ultrafiltration filter of 5000 NMWL (Ultrafree-MC BIOMAX-5, UFC3BCC00, produced by Millipore). To the cerebrospinal fluid, 25 microliters of a solution containing L-Valine-^13C5, ^15N or L-Lysine-^13C5, ^15N as an internal standard substance (0.1% formic acid, 50% methanol solvent) and 800 microliters of a 0.15% hydrochloric acid solution were added. This sample solution was applied to a solid phase extraction column, Oasis MCX (10 mg), produced by Waters. Washing was performed with 1 mL of water first, then with 1 mL of 50% methanol solvent containing 0.1% formic acid, subsequently with 1 mL of water, and with 1 mL of methanol. Then, elution was performed with 1 mL of a mixture of 25% aqueous ammonia and methanol (2:3, v/v), the eluate was dried, the residue was dissolved again in 25 microliters of 50% methanol, and insoluble substances were removed by using a PVDF membrane filter having a pore size of 0.22 micrometer to prepare a sample for LC/MS.
# As for the material packed in the LC column, Primesep A resin (particle size: 5 micrometers, pore size: 100 angstroms) of SIELC Technologies (Prospect Heights, Ill.) was packed in a fused silica capillary having an internal diameter of 150 micrometers (internal surface was treated with TC-WAX, produced by GL Sciences, catalog number: 1010-27012) of which tip was tapered to a diameter of about 8 micrometers beforehand with a laser-based puller P-2000 (produced by Sutter) at a height of about 15 cm under a nitrogen gas pressure of about 7 MPa, and this was used as a column. 50% Methanol containing 0.1% formic acid was used as a mobile phase A, and 90% methanol containing 2% trifluoroacetic acid in addition to 0.1% formic acid was used as a mobile phase B. The concentration gradient of the mobile phase B was, from the start of elution, as follows: 0 minute (0%)-5 minutes (0%)-25 minutes (25%)-25.1 minutes (50%)-50 minutes (100%)-60 minutes (100%), and the flow rate was 1 microliter per minute. Since valine as the internal standard substance was eluted in a period of 5 to 25 minutes, and lysine as the internal standard substance was eluted in a period of 25 to 50 minutes, either one of the internal standard substances was appropriately used for quantification of each substance depending on the elution time. Qstar Pulsar i produced by Applied Biosystems was used in the cation detection mode as the mass spectrometer with an applied voltage of 2400 volts at a DP value of 10 and an IP value of 100 for improving the sensitivity to perform the measurement for the scanning range of 50 to 700 amu.
# Further, by the MS/MS measurement, m/z 86.08 and m/z 58.06 were obtained from the former and the latter, respectively, as the product ions. The former was estimated to be that of lidocaine, and the latter was estimated to be that of MEGX, which is a metabolite of lidocaine. Therefore, specimens of these substances were obtained, and measured under the same LC/MS conditions. As a result, the same retention times and mass spectra were obtained, and thus it was confirmed that these peaks were those of lidocaine and MEXG.
"Lidocaine peak ratio to lysine, average (average of 17 AD patients)","Lidocaine peak ratio to lysine, average (average of 17 healthy controls)","concentration detected in cerebrospinal fluid, AD patients versus healthy subjects",Structure (SMILES),Lidocaine peak ratio to lysine (AD patient),Lidocaine peak ratio to lysine (healthy control)
0.2,1.427,AD patient-specific low concentrations,"CCN(CC)CC(=O)Nc1c(C)cccc1C [Lidocaine, lidocaine]",0.842 and 0.040 and 0.059 and 0.035 and 0.396 and 0.030 and 0.000 (2×) and 0.086 and 0.061 and 0.055 and 0.107 and 0.745 and 0.021 and 0.143 and 0.015 and 0.277,1.40 and 0.83 and 2.29 and 1.20 and 1.72 and 2.84 and 1.53 and 0.96 and 0.91 and 1.79 and 1.50 and 0.72 and 1.09 and 1.31 and 0.98 and 0.67 and 2.54
,,AD patient-specific low concentrations,"CCNCC(=O)Nc1c(C)cccc1C [MEGX, monoethylglycinexylidide]",,
